Data: PubChem BioAssay AID330 (DTP/NCI, 2004)
“And” between values parts separate entries of the source, which are not always exact repeats. Equal entries are not always repeated. Inconclusive results and toxic doses are left out. Rule for the calls: active = survival T/C of 150% or more; inactive = T/C below 125% in these data.

Tested on: P388 leukemia ip, CD2F1 mice, survival T/C
Assay: NCI In Vivo Anticancer Drug Screen. Data for tumor model P388 Leukemia (intraperitoneal) in CD2F1 (CDF1) mice
Settings: endpoint: median survival time, higher = longer survival
Procedure, shortened: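 Mice carrying the transplanted tumor received test compound or vehicle. Survival was recorded in each group, and the value is the treated-group measurement divided by that of the vehicle-treated control group.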

[1] = dose: 12.5 mg/kg/injection, schedule: Q01DX005 (ip), vehicle: Klucel (hydroxypropylcellulose) (HPC)
[2] = dose: 25.0 mg/kg/injection, schedule: Q01DX005 (ip), vehicle: saline
[3] = dose: 50.0 mg/kg/injection, schedule: Q01DX005 (ip), vehicle: Klucel (hydroxypropylcellulose) (HPC)
[4] = dose: 100.0 mg/kg/injection, schedule: Q01DX005 (ip), vehicle: Klucel (hydroxypropylcellulose) (HPC)
[5] = dose: 200.0 mg/kg/injection, schedule: Q01DX005 (ip), vehicle: Klucel (hydroxypropylcellulose) (HPC)
[6] = dose: 12.5 mg/kg/injection, schedule: Q01DX005 (ip), vehicle: saline
[7] = dose: 50.0 mg/kg/injection, schedule: Q01DX005 (ip), vehicle: saline with Tween-80
[8] = dose: 100.0 mg/kg/injection, schedule: Q01DX005 (ip), vehicle: saline with Tween-80
[9] = dose: 200.0 mg/kg/injection, schedule: Q01DX005 (ip), vehicle: saline with Tween-80
[10] = dose: 50.0 mg/kg/injection, schedule: Q01DX009 (ip), vehicle: saline with Tween-80
[11] = dose: 100.0 mg/kg/injection, schedule: Q01DX009 (ip), vehicle: saline with Tween-80
[12] = dose: 200.0 mg/kg/injection, schedule: Q01DX009 (ip), vehicle: saline with Tween-80
[13] = dose: 50.0 mg/kg/injection, schedule: Q01DX009 (ip), vehicle: saline
[14] = dose: 100.0 mg/kg/injection, schedule: Q01DX009 (ip), vehicle: saline
[15] = dose: 200.0 mg/kg/injection, schedule: Q01DX009 (ip), vehicle: saline
[16] = dose: 6.25 mg/kg/injection, schedule: Q01DX005 (ip), vehicle: Klucel (hydroxypropylcellulose) (HPC)
[17] = dose: 6.25 mg/kg/injection, schedule: Q01DX009 (ip), vehicle: saline with Tween-80
[18] = dose: 12.5 mg/kg/injection, schedule: Q01DX009 (ip), vehicle: saline with Tween-80
[19] = dose: 25.0 mg/kg/injection, schedule: Q01DX009 (ip), vehicle: saline with Tween-80
[20] = dose: 100.0 mg/kg/injection, schedule: Q04DX003 (ip), vehicle: saline with Tween-80
[21] = dose: 200.0 mg/kg/injection, schedule: Q04DX003 (ip), vehicle: saline with Tween-80
[22] = dose: 60.0 mg/kg/injection, schedule: Q01DX005 (ip), vehicle: saline with Tween-80
[23] = dose: 120.0 mg/kg/injection, schedule: Q01DX005 (ip), vehicle: saline with Tween-80
[24] = dose: 240.0 mg/kg/injection, schedule: Q01DX005 (ip), vehicle: saline with Tween-80

Measured: T/C

COc1cc2c[n+](C)c3c4cc(OC)c(OC)cc4c(OC)cc3c2cc1OC
inactive: [1] 118 % of control | [2] 109 % of control | [3] 112 % of control | [4] 118 % of control | dose: 100.0 mg/kg/injection, schedule: Q01DX005 (ip), vehicle: saline 120 % of control

CCOP1(=O)OC(c2ccccc2)C(C)N1C (centres undefined)
inactive: [3] 100 % of control | [4] 104 % of control | [5] 107 % of control

CN=C(NC)NCCSCc1ccc2ccccc2n1
inactive: [6] 115 % of control | [2] 118 % of control | dose: 50.0 mg/kg/injection, schedule: Q01DX005 (ip), vehicle: saline 102 % of control and 112 % of control

O=C(O)C[CH2][Sn]([Cl])([Cl])[CH2]CC(=O)O
inactive: [3] 98 % of control | [4] 98 % of control | [5] 91 % of control

CCOC(=O)C1C2(C)NC(=O)C1(Cc1ccccc1)c1ccc(O)cc1O2 (centres undefined)
inactive: [7] 95 % of control | [8] 96 % of control | [9] 95 % of control

COCCOC(=O)c1c(Cl)c(Cl)c(Cl)c(Cl)c1C(=O)O
inactive: [10] 96 % of control | [11] 96 % of control | [12] 101 % of control

COc1cc(NCCC2CCCCN2)c2ncccc2c1 (centres undefined)
inactive: dose: 6.25 mg/kg/injection, schedule: Q01DX005 (ip), vehicle: saline 100 % of control | [6] 100 % of control

O=C1CSc2nc3c(I)cc(I)cc3c(=O)n21
inactive: [3] 101 % of control | [4] 100 % of control | [5] 98 % of control

Cc1cc2ccccc2c(N=Cc2cc(Br)cc(Br)c2O)c1C#N
inactive: dose: 100.0 mg/kg/injection, schedule: Q01DX001 (ip), vehicle: saline with Tween-80 95 % of control | dose: 200.0 mg/kg/injection, schedule: Q01DX001 (ip), vehicle: saline with Tween-80 98 % of control | dose: 400.0 mg/kg/injection, schedule: Q01DX001 (ip), vehicle: saline with Tween-80 112 % of control

CC(=O)c1ccc(OCc2ccccc2)cc1OCc1ccccc1
inactive: [13] 97 % of control | [14] 100 % of control | [15] 98 % of control

O=C1NC(O)c2cccc(Br)c2O1 (centres undefined)
inactive: [7] 93 % of control | [8] 107 % of control | [9] 117 % of control

C#CC(C)C(C(C)=O)C(C)=O.[C-]#[O+].[C-]#[O+].[C-]#[O+].[C-]#[O+].[C-]#[O+].[C-]#[O+].[Co].[Co] (centres undefined)
inactive: dose: 3.12 mg/kg/injection, schedule: Q01DX005 (ip), vehicle: Klucel (hydroxypropylcellulose) (HPC) 104 % of control | [16] 94 % of control | [1] 111 % of control

Cc1ccc(S(=O)(=O)OCC(C)(C)COS(=O)(=O)c2ccc(C)cc2)cc1
inactive: dose: 3.13 mg/kg/injection, schedule: Q01DX009 (ip), vehicle: saline with Tween-80 103 % of control | [17] 103 % of control | [18] 105 % of control | [19] 106 % of control

C#Cc1cccc(N=Cc2cc(Br)cc(OC)c2O)c1
inactive: [7] 90 % of control | [8] 92 % of control | [9] 111 % of control

COc1cc(Cl)ccc1NC(=O)Oc1cc(C)c(I)cc1C
inactive: [10] 104 % of control | [11] 100 % of control | [12] 88 % of control

O=C1N/C(=N/O)CC(NO)N1 (centres undefined)
inactive: dose: 100.0 mg/kg/injection, schedule: Q04DX002 (ip), vehicle: Klucel (hydroxypropylcellulose) (HPC) 97 % of control | dose: 200.0 mg/kg/injection, schedule: Q04DX002 (ip), vehicle: Klucel (hydroxypropylcellulose) (HPC) 100 % of control | dose: 400.0 mg/kg/injection, schedule: Q04DX002 (ip), vehicle: Klucel (hydroxypropylcellulose) (HPC) 102 % of control

Cc1n[nH]c2ccc([N+](=O)[O-])cc2c1=O
inactive: [17] 100 % of control | [18] 100 % of control | [19] 90 % of control | dose: 50.0 mg/kg/injection, schedule: Q04DX003 (ip), vehicle: saline with Tween-80 100 % of control | [20] 95 % of control | [21] 100 % of control

C=C1CCN(c2ccc(OCC)cc2)C1=O
inactive: dose: 4.0 mg/kg/injection, schedule: Q01DX009 (ip), vehicle: saline + alcohol 102 % of control and 113 % of control and 94 % of control | dose: 8.0 mg/kg/injection, schedule: Q01DX009 (ip), vehicle: saline + alcohol 101 % of control and 108 % of control and 91 % of control | dose: 16.0 mg/kg/injection, schedule: Q01DX009 (ip), vehicle: saline + alcohol 100 % of control and 91 % of control | dose: 32.0 mg/kg/injection, schedule: Q01DX009 (ip), vehicle: saline + alcohol 106 % of control and 111 % of control and 94 % of control | dose: 64.0 mg/kg/injection, schedule: Q01DX009 (ip), vehicle: saline + alcohol 100 % of control and 108 % of control and 95 % of control

Cc1c(C)c2c(c3c1OC(C)(C)CC3)CCC(C)(C)O2
inactive: dose: 50.0 mg/kg/injection, schedule: Q01DX009 (ip), vehicle: suspension in saline 88 % of control | dose: 100.0 mg/kg/injection, schedule: Q01DX009 (ip), vehicle: suspension in saline 101 % of control | dose: 200.0 mg/kg/injection, schedule: Q01DX009 (ip), vehicle: suspension in saline 100 % of control

O=C(CCl)N1c2ccccc2Sc2ccc3ccccc3c21
inactive: [13] 95 % of control | [14] 102 % of control | [15] 113 % of control

O=C1CCN(C(=O)C2=CC(=O)OC2)C1
inactive: [1] 100 % of control | dose: 25.0 mg/kg/injection, schedule: Q01DX005 (ip), vehicle: Klucel (hydroxypropylcellulose) (HPC) 93 % of control | [3] 100 % of control

CC1CC(Cc2ccccc2)C(=O)CC(C)(C)CC(=O)O1 (centres undefined)
inactive: dose: 50.0 mg/kg/injection, schedule: Q04DX003 (ip), vehicle: saline 100 % of control and 103 % of control and 106 % of control

Cc1cc(Cl)c2ccccc2c1N
inactive: [20] 100 % of control | dose: 200.0 mg/kg/injection, schedule: Q01DX009 (ip), vehicle: other 105 % of control | [21] 95 % of control | dose: 400.0 mg/kg/injection, schedule: Q01DX009 (ip), vehicle: other 90 % of control | dose: 400.0 mg/kg/injection, schedule: Q04DX003 (ip), vehicle: saline with Tween-80 100 % of control

C[n+]1noc([O-])c1-c1ccccc1
inactive: [10] 102 % of control | [11] 104 % of control

CSC1C(=O)N2CCCc3cccc1c32 (centres undefined)
inactive: [22] 105 % of control | [23] 96 % of control | [24] 96 % of control

Cc1cc2cc3c(=O)n(C)c(=O)nc-3n(C)c2cc1C
inactive: [7] 92 % of control | [8] 98 % of control | [9] 95 % of control

CCCCN(CCCC)C(=N)c1ccccc1Cl
inactive: [16] 103 % of control | [1] 99 % of control

CC12C=CC(O1)C1C(=O)OC(=O)C12 (centres undefined)
inactive: [22] 101 % of control | [23] 90 % of control

COC(=O)C1(C2CCCCCCC2=O)NC(=S)NC(=O)C1C#N (centres undefined)
inactive: [22] 92 % of control | [23] 99 % of control | [24] 99 % of control

Cc1ccc(S(=O)c2cc(C(C)(C)C)cc(C(C)(C)C)c2O)cc1 (centres undefined)
inactive: [10] 103 % of control | [11] 110 % of control | [12] 88 % of control
